Experimental data as given in US6426204B1, “Method for detecting candida infection” (priority 1991, dated 2002).

Biological target: T1, C. tropicalis D-arabinitol dehydrogenase (Candida tropicalis, UniProt P50166)
T1 construct: endogenous in cells
Test: Specificity of the fluorogenic D-arabinitol assay (reactivity of sugars and sugar alcohols)
Assay type: biochemical
Settings: for Relative Reactivity: relative to D-arabinitol
Method: Human serum was diluted 1:3 (v/v) with 10 mmol/L citrate (pH 4.0), placed in a boiling water bath for 10 min, and then centrifuged at 10,000×g for 10 min to remove precipitated material. The supernatant was used as the sample. Reaction mixtures (vol.=0.4 mL) contained 0.3 mL of sample, 1 mmol/L NAD^+, 4 mmol/L Mg^2+, 0.35 IU C. tropicalis D-arabinitol dehydrogenase prepared as described in Example 1, and 0.1 mol/L Tris (pH 9.5). Incubation was for 15 min at room temperature to promote the D-arabinitol dehydrogenase-catalyzed oxidation of D-arabinitol with concomitant reduction of NAD^+ to NADH. This initial incubation stage was terminated by reducing the pH of the reaction mixture to 5.8 with 0.03 mL 1.0 mol/L citrate (pH 3.6). Resazurin (12.5 μmol/L) and diaphorase (0.15 IU) were then added, and the sample was reincubated at room temperature to promote the diaphorase-catalyzed utilization of NADH (which had accumulated in the initial incubation stage) for the reduction of resazurin to resorufin. Formation of the latter was monitored fluorometrically (Excitation=560 nm, Emission=580 nm) using a Perkin-Elmer fluorescence spectrophotometer, Model #650-40, and was complete within 30 sec.
A series of sugars and sugar alcohols normally present in human serum were assessed for reactivity in the fluorometric assay. Of the compounds examined, significant reactivity relative to that observed with an equimolar concentration of D-arabinitol was found only with xylitol (3.3%). D-glucose at concentrations as great as 5.0 mmol/L was not utilized as “a” substrate.
Assays were performed as described in Example 4 except the sample contained, instead of the boiled serum supernatant, the indicated compound in PBS/10 mmol/L citrate, pH 4.0 (1:3, v/v).

[1] = compound 5 μmol/L in PBS/10 mmol/L citrate pH 4.0
[2] = compound 500 μmol/L in PBS/10 mmol/L citrate pH 4.0

T1 sequence (P50166 whole entry): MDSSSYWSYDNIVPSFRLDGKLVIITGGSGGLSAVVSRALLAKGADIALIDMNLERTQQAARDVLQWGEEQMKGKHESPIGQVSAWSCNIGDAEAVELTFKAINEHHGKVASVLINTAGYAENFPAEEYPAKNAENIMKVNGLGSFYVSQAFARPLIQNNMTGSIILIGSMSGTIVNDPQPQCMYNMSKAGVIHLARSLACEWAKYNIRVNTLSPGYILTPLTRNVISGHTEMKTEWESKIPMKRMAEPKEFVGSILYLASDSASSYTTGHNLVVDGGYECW

## OC[C@@H](O)C(O)[C@H](O)CO [D-arabinitol]
[1]
  Relative Reactivity: 100%

## O=C(CO)[C@@H](O)[C@H](O)[C@H](O)CO [D-fructose]
[2]
  Relative Reactivity: 0%

## O=C[C@H](O)[C@@H](O)[C@@H](O)[C@H](O)CO [D-galactose]
[2]
  Relative Reactivity: 0.9%

## O=C[C@H](O)[C@@H](O)[C@H](O)[C@H](O)CO [D-glucose]
Compound 5000 μmol/L in PBS/10 mmol/L citrate pH 4.0
  Relative Reactivity: 0%
Concentrations as great as 5.0 mmol/L
  Utilization as substrate in the fluorometric assay: not utilized

## OC[C@@H](O)[C@@H](O)[C@H](O)[C@H](O)CO [D-mannitol]
[1]
  Relative Reactivity: 0%

## O=C[C@@H](O)[C@@H](O)[C@H](O)[C@H](O)CO [D-mannose]
[2]
  Relative Reactivity: 0.3%

## OC[C@@H](O)[C@@H](O)[C@H](O)[C@@H](O)CO [D-sorbitol]
[1]
  Relative Reactivity: 0.1%

## OC[C@H](O)C(O)[C@@H](O)CO [L-arabinitol]
[1]
  Relative Reactivity: 0%

## OC[C@@H](O)[C@@H](O)CO [erythritol]
[1]
  Relative Reactivity: 0%

## OC[C@@H](O)[C@H](O)[C@H](O)[C@@H](O)CO [galactitol]
[1]
  Relative Reactivity: 0.6%

## OC[C@@H](O)[C@@H](O)[C@@H](O)CO [ribitol]
[1]
  Relative Reactivity: 0%

## OC[C@@H](O)[C@H](O)CO [threitol]
[1]
  Relative Reactivity: 0.1%

## OC[C@@H](O)[C@H](O)[C@@H](O)CO [xylitol]
[1]
  Relative Reactivity: 3.3%
